{"source": "the supplement of paper PMC11061612", "key": {"[1]": {"system": "A375 (Melanoma)", "test": "Bliss excess, mean over the matrix (fraction); higher = more synergy", "method_in_brief": "(§1)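 Bliss excess equals the observed combination effect minus the expected value EA + EB − EA·EB, where EA and EB are the effects of each agent alone. Combination Emax is the second-highest inhibition within the matrix. Inhibition was scaled from CellTiter-Glo 2.0 luminescence, with 0 set by vehicle wells and 1 by blank wells, after 72 hours of two-drug dosing of cells plated in 1536-well plates.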"}, "[2]": {"system": "BC-1 (B-Cell Non-Hodgkin's Lymphoma)", "test": "Bliss excess, mean over the matrix (fraction); higher = more synergy", "method_in_brief": "as §1"}, "[3]": {"system": "C32 (Melanoma)", "test": "Bliss excess, mean over the matrix (fraction); higher = more synergy", "method_in_brief": "as §1"}, "[4]": {"system": "CAL-85-1 (Breast Carcinoma)", "test": "Bliss excess, mean over the matrix (fraction); higher = more synergy", "method_in_brief": "as §1"}, "[5]": {"system": "COR-L105 (Lung Adenocarcinoma)", "test": "Bliss excess, mean over the matrix (fraction); higher = more synergy", "method_in_brief": "as §1"}, "[6]": {"system": "GCIY (Gastric Carcinoma)", "test": "Bliss excess, mean over the matrix (fraction); higher = more synergy", "method_in_brief": "as §1"}, "[7]": {"system": "KNS-62 (Squamous Cell Lung Carcinoma)", "test": "Bliss excess, mean over the matrix (fraction); higher = more synergy", "method_in_brief": "as §1"}, "[8]": {"system": "L-363 (Plasma Cell Myeloma)", "test": "Bliss excess, mean over the matrix (fraction); higher = more synergy", "method_in_brief": "as §1"}, "[9]": {"system": "MDA-MB-175-VII (Breast Carcinoma)", "test": "Bliss excess, mean over the matrix (fraction); higher = more synergy", "method_in_brief": "as §1"}, "[10]": {"system": "MG-63 (Osteosarcoma)", "test": "Bliss excess, mean over the matrix (fraction); higher = more synergy", "method_in_brief": "as §1"}, "[11]": {"system": "MRK-nu-1 (Breast Carcinoma)", "test": "Bliss excess, mean over the matrix (fraction); higher = more synergy", "method_in_brief": "as §1"}, "[12]": {"system": "NCI-H1435 (Non-Small Cell Lung Carcinoma)", "test": "Bliss excess, mean over the matrix (fraction); higher = more synergy", "method_in_brief": "as §1"}, "[13]": {"system": "NCI-H1648 (Lung Adenocarcinoma)", "test": "Bliss excess, mean over the matrix (fraction); higher = more synergy", "method_in_brief": "as §1"}, "[14]": {"system": "NCI-H2009 (Lung Adenocarcinoma)", "test": "Bliss excess, mean over the matrix (fraction); higher = more synergy", "method_in_brief": "as §1"}, "[15]": {"system": "NCI-H2023 (Non-Small Cell Lung Carcinoma)", "test": "Bliss excess, mean over the matrix (fraction); higher = more synergy", "method_in_brief": "as §1"}, "[16]": {"system": "NCI-H2452 (Mesothelioma)", "test": "Bliss excess, mean over the matrix (fraction); higher = more synergy", "method_in_brief": "as §1"}, "[17]": {"system": "NCI-H835 (Other Solid Carcinomas)", "test": "Bliss excess, mean over the matrix (fraction); higher = more synergy", "method_in_brief": "as §1"}, "[18]": {"system": "NTERA-2-cl-D1 (Other Solid Carcinomas)", "test": "Bliss excess, mean over the matrix (fraction); higher = more synergy", "method_in_brief": "as §1"}, "[19]": {"system": "OVKATE (Ovarian Carcinoma)", "test": "Bliss excess, mean over the matrix (fraction); higher = more synergy", "method_in_brief": "as §1"}, "[20]": {"system": "RPMI-8402 (T-Lymphoblastic Leukemia)", "test": "Bliss excess, mean over the matrix (fraction); higher = more synergy", "method_in_brief": "as §1"}, "[21]": {"system": "SBC-3 (Small Cell Lung Carcinoma)", "test": "Bliss excess, mean over the matrix (fraction); higher = more synergy", "method_in_brief": "as §1"}, "[22]": {"system": "SK-MEL-24 (Melanoma)", "test": "Bliss excess, mean over the matrix (fraction); higher = more synergy", "method_in_brief": "as §1"}, "[23]": {"system": "SW1463 (Colorectal Carcinoma)", "test": "Bliss excess, mean over the matrix (fraction); higher = more synergy", "method_in_brief": "as §1"}, "[24]": {"system": "A375 (Melanoma)", "test": "combination Emax (second highest fraction inhibited in the dose matrix, 72 h); higher = more inhibition; extreme values may be limits of the assay", "method_in_brief": "as §1"}, "[25]": {"system": "BC-1 (B-Cell Non-Hodgkin's Lymphoma)", "test": "combination Emax (second highest fraction inhibited in the dose matrix, 72 h); higher = more inhibition; extreme values may be limits of the assay", "method_in_brief": "as §1"}, "[26]": {"system": "C32 (Melanoma)", "test": "combination Emax (second highest fraction inhibited in the dose matrix, 72 h); higher = more inhibition; extreme values may be limits of the assay", "method_in_brief": "as §1"}, "[27]": {"system": "CAL-85-1 (Breast Carcinoma)", "test": "combination Emax (second highest fraction inhibited in the dose matrix, 72 h); higher = more inhibition; extreme values may be limits of the assay", "method_in_brief": "as §1"}, "[28]": {"system": "COR-L105 (Lung Adenocarcinoma)", "test": "combination Emax (second highest fraction inhibited in the dose matrix, 72 h); higher = more inhibition; extreme values may be limits of the assay", "method_in_brief": "as §1"}, "[29]": {"system": "GCIY (Gastric Carcinoma)", "test": "combination Emax (second highest fraction inhibited in the dose matrix, 72 h); higher = more inhibition; extreme values may be limits of the assay", "method_in_brief": "as §1"}, "[30]": {"system": "KNS-62 (Squamous Cell Lung Carcinoma)", "test": "combination Emax (second highest fraction inhibited in the dose matrix, 72 h); higher = more inhibition; extreme values may be limits of the assay", "method_in_brief": "as §1"}, "[31]": {"system": "L-363 (Plasma Cell Myeloma)", "test": "combination Emax (second highest fraction inhibited in the dose matrix, 72 h); higher = more inhibition; extreme values may be limits of the assay", "method_in_brief": "as §1"}, "[32]": {"system": "MDA-MB-175-VII (Breast Carcinoma)", "test": "combination Emax (second highest fraction inhibited in the dose matrix, 72 h); higher = more inhibition; extreme values may be limits of the assay", "method_in_brief": "as §1"}, "[33]": {"system": "MG-63 (Osteosarcoma)", "test": "combination Emax (second highest fraction inhibited in the dose matrix, 72 h); higher = more inhibition; extreme values may be limits of the assay", "method_in_brief": "as §1"}, "[34]": {"system": "MRK-nu-1 (Breast Carcinoma)", "test": "combination Emax (second highest fraction inhibited in the dose matrix, 72 h); higher = more inhibition; extreme values may be limits of the assay", "method_in_brief": "as §1"}, "[35]": {"system": "NCI-H1435 (Non-Small Cell Lung Carcinoma)", "test": "combination Emax (second highest fraction inhibited in the dose matrix, 72 h); higher = more inhibition; extreme values may be limits of the assay", "method_in_brief": "as §1"}, "[36]": {"system": "NCI-H1648 (Lung Adenocarcinoma)", "test": "combination Emax (second highest fraction inhibited in the dose matrix, 72 h); higher = more inhibition; extreme values may be limits of the assay", "method_in_brief": "as §1"}, "[37]": {"system": "NCI-H2009 (Lung Adenocarcinoma)", "test": "combination Emax (second highest fraction inhibited in the dose matrix, 72 h); higher = more inhibition; extreme values may be limits of the assay", "method_in_brief": "as §1"}, "[38]": {"system": "NCI-H2023 (Non-Small Cell Lung Carcinoma)", "test": "combination Emax (second highest fraction inhibited in the dose matrix, 72 h); higher = more inhibition; extreme values may be limits of the assay", "method_in_brief": "as §1"}, "[39]": {"system": "NCI-H2452 (Mesothelioma)", "test": "combination Emax (second highest fraction inhibited in the dose matrix, 72 h); higher = more inhibition; extreme values may be limits of the assay", "method_in_brief": "as §1"}, "[40]": {"system": "NCI-H835 (Other Solid Carcinomas)", "test": "combination Emax (second highest fraction inhibited in the dose matrix, 72 h); higher = more inhibition; extreme values may be limits of the assay", "method_in_brief": "as §1"}, "[41]": {"system": "NTERA-2-cl-D1 (Other Solid Carcinomas)", "test": "combination Emax (second highest fraction inhibited in the dose matrix, 72 h); higher = more inhibition; extreme values may be limits of the assay", "method_in_brief": "as §1"}, "[42]": {"system": "OVKATE (Ovarian Carcinoma)", "test": "combination Emax (second highest fraction inhibited in the dose matrix, 72 h); higher = more inhibition; extreme values may be limits of the assay", "method_in_brief": "as §1"}, "[43]": {"system": "RPMI-8402 (T-Lymphoblastic Leukemia)", "test": "combination Emax (second highest fraction inhibited in the dose matrix, 72 h); higher = more inhibition; extreme values may be limits of the assay", "method_in_brief": "as §1"}, "[44]": {"system": "SBC-3 (Small Cell Lung Carcinoma)", "test": "combination Emax (second highest fraction inhibited in the dose matrix, 72 h); higher = more inhibition; extreme values may be limits of the assay", "method_in_brief": "as §1"}, "[45]": {"system": "SK-MEL-24 (Melanoma)", "test": "combination Emax (second highest fraction inhibited in the dose matrix, 72 h); higher = more inhibition; extreme values may be limits of the assay", "method_in_brief": "as §1"}, "[46]": {"system": "SW1463 (Colorectal Carcinoma)", "test": "combination Emax (second highest fraction inhibited in the dose matrix, 72 h); higher = more inhibition; extreme values may be limits of the assay", "method_in_brief": "as §1"}}}
{"smiles": "C[C@@H]1COCCN1c1cc(C2([S@](C)(=N)=O)CC2)nc(-c2ccnc3[nH]ccc23)n1", "note": "[AZD6738] + C1CC(C1)(C(=O)[O-])C(=O)[O-].N.N.[Pt+2] [Carboplatin] (first compound max 10 µM, 7x7, partner max 10 µM)", "values": [{"measurement": "Bliss excess", "setting": "[1]", "value": -0.0113}, {"measurement": "Bliss excess", "setting": "[2]", "value": -0.0173}, {"measurement": "Bliss excess", "setting": "[3]", "value": -0.0133}, {"measurement": "Bliss excess", "setting": "[4]", "value": -0.0551}, {"measurement": "Bliss excess", "setting": "[5]", "value": -0.0272}, {"measurement": "Bliss excess", "setting": "[6]", "value": -0.066}, {"measurement": "Bliss excess", "setting": "[7]", "value": -0.0581}, {"measurement": "Bliss excess", "setting": "[8]", "value": -0.0089}, {"measurement": "Bliss excess", "setting": "[9]", "value": -0.0024}, {"measurement": "Bliss excess", "setting": "[10]", "value": -0.0391}, {"measurement": "Bliss excess", "setting": "[11]", "value": -0.0127}, {"measurement": "Bliss excess", "setting": "[12]", "value": -0.0103}, {"measurement": "Bliss excess", "setting": "[13]", "value": -0.0579}, {"measurement": "Bliss excess", "setting": "[14]", "value": -0.0556}, {"measurement": "Bliss excess", "setting": "[15]", "value": -0.0208}, {"measurement": "Bliss excess", "setting": "[16]", "value": -0.0212}, {"measurement": "Bliss excess", "setting": "[17]", "value": -0.0529}, {"measurement": "Bliss excess", "setting": "[18]", "value": -0.0651}, {"measurement": "Bliss excess", "setting": "[19]", "value": -0.0642}, {"measurement": "Bliss excess", "setting": "[20]", "value": -0.0461}, {"measurement": "Bliss excess", "setting": "[21]", "value": -0.031}, {"measurement": "Bliss excess", "setting": "[22]", "value": -0.0748}, {"measurement": "Bliss excess", "setting": "[23]", "value": -0.0446}, {"measurement": "combination Emax", "setting": "[24]", "value": 0.521}, {"measurement": "combination Emax", "setting": "[25]", "value": 0.849}, {"measurement": "combination Emax", "setting": "[26]", "value": 0.601}, {"measurement": "combination Emax", "setting": "[27]", "value": 0.382}, {"measurement": "combination Emax", "setting": "[28]", "value": 0.323}, {"measurement": "combination Emax", "setting": "[29]", "value": 0.643}, {"measurement": "combination Emax", "setting": "[30]", "value": 0.438}, {"measurement": "combination Emax", "setting": "[31]", "value": 0.528}, {"measurement": "combination Emax", "setting": "[32]", "value": 0.309}, {"measurement": "combination Emax", "setting": "[33]", "value": 0.524}, {"measurement": "combination Emax", "setting": "[34]", "value": 0.6}, {"measurement": "combination Emax", "setting": "[35]", "value": 0.136}, {"measurement": "combination Emax", "setting": "[36]", "value": 0.571}, {"measurement": "combination Emax", "setting": "[37]", "value": 0.466}, {"measurement": "combination Emax", "setting": "[38]", "value": 0.608}, {"measurement": "combination Emax", "setting": "[39]", "value": 0.432}, {"measurement": "combination Emax", "setting": "[40]", "value": 0.322}, {"measurement": "combination Emax", "setting": "[41]", "value": 0.524}, {"measurement": "combination Emax", "setting": "[42]", "value": 0.211}, {"measurement": "combination Emax", "setting": "[43]", "value": 0.967}, {"measurement": "combination Emax", "setting": "[44]", "value": 0.647}, {"measurement": "combination Emax", "setting": "[45]", "value": 0.36}, {"measurement": "combination Emax", "setting": "[46]", "value": 0.409}]}
